The text below walks through data of US6914064B2, “1,4-Disubstituted piperazine derivatives useful as uro-selective α1-adrenoceptor blockers” (Ranbaxy Laboratories Limited, priority 2000, dated 2005).

Each structure is given as a SMILES string. Some results are limits rather than exact numbers.

In one series the target is T1, α1A adrenoceptor (Rattus norvegicus, UniProt P43140).
T1 construct: from tissue; host or cells: rat submaxillary gland membranes
T1 sequence (P43140 1-466): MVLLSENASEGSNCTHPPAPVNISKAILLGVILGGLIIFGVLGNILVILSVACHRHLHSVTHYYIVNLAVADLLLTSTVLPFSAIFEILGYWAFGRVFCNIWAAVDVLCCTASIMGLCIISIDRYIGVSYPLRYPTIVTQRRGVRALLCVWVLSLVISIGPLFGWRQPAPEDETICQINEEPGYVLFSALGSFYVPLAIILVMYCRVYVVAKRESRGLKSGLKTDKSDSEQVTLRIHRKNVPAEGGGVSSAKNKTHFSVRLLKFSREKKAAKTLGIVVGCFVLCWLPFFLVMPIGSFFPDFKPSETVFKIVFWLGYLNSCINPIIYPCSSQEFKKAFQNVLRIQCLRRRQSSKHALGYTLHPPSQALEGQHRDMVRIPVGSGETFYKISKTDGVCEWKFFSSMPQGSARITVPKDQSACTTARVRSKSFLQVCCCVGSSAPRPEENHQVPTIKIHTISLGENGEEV
Description: Receptor binding assay, displacement of [3H]prazosin, rat submaxillary membranes. To be noted: for Ki: [3H]prazosin displacement, rat submaxillary membranes, read-out: α1A (Rat submaxillary) Ki; for Selectivity α1B/α1A: ratio of Ki α1B (rat liver) / α1A (rat submaxillary). How it is done: Receptor binding assays were performed using native α-adrenoceptors.
(§1) Submaxillary glands were isolated immediately after sacrifice. The liver was perfused with buffer (Tris HCl 50 mM, NaCl 100 mM, 10 mM EDTA pH 7.4). The tissues were homogenised in 10 volumes of buffer (Tris HCl 50 mM, NaCl 100 mM, EDTA 10 mM, pH 7.4). The homogenate was filtered through two layers of wet gauze and filtrate was centrifuged at 500 g for 10 min. The supernatant was subsequently centrifuged at 40,000 g for 45 min. The pellet thus obtained was resuspended in the same volume of assay buffer (Tris HCl 50 mM, EDTA 5 mM, pH 7.4) and were stored at −70° C. until the time of assay.
(§2) The membrane homogenates (150-250 μg protein) were incubated in 250 μl of assay buffer (Tris HCl 50 mM, EDTA 5 mM, pH 7.4) at 24-25° C. for 1 h. Non-specific binding was determined in the presence of 300 nM prazosin. The incubation was terminated by vacuum filtration over GF/B fibre filters. The filters were then washed with ice cold 50 mM Tris HCl buffer (pH 7.4). The filtermats were dried and bound radioactivity retained on filters was counted.The IC50 & Kd were estimated by using the non-linear curve fitting program using G Pad Prism software.
In general terms: In a radioligand displacement assay an active substance lowers the binding of a labelled ligand.

In the next series the target is T2, α1B adrenoceptor (Rattus norvegicus, UniProt P15823).
T2 construct: from tissue; host or cells: rat liver membranes
T2 sequence (P15823 1-515): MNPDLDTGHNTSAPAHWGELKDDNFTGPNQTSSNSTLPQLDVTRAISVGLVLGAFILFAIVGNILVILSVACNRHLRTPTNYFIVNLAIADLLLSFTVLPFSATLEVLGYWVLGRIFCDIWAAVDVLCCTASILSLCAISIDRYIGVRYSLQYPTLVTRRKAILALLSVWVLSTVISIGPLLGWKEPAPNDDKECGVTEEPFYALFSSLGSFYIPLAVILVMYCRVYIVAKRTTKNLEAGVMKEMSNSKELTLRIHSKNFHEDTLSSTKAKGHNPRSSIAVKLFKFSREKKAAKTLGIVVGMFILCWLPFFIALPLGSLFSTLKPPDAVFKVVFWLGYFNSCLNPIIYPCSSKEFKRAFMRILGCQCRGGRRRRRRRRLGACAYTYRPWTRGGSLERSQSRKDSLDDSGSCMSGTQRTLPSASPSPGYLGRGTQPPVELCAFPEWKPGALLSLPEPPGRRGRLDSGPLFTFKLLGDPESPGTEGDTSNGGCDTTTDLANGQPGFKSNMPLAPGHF
Description: Receptor binding assay, displacement of [3H]prazosin, rat liver membranes. As to conditions: [3H]prazosin displacement, rat liver membranes; read-out: α1B (Rat liver) Ki. How it is done:
Receptor binding assays were performed using native α-adrenoceptors. The affinity of different compounds for α1A and α1B adrenoceptor subtypes was evaluated by studying their ability to displace specific [^3H]prazosin binding from the membranes of rat submaxillary and liver respectively (Michel et al, Br J Pharmacol, 98, 883-889 (1989)). The binding assays were performed according to U'Prichard et al. (Eur J Pharmacol, 50:87-89 (1978)) with minor modifications.
as §1
as §2, with “software. The value of inhibition constant Ki was calculated from competitive binding studies by using Cheng & Prusoff equation (Cheng & Prusoff, Biochem Pharmacol, 1973,22: 3099-3108), Ki=IC50/(1+L/Kd) where L is the concentration of [^3H]prazosin used in the particular experiment (Table I).” for “software.”

Series [1] addresses T3, α1A adrenoceptor (prostate) (Rattus norvegicus, UniProt P43140).
T3 construct: from tissue; host or cells: isolated prostate tissue
T3 sequence (P43140 1-466): T1 sequence (P43140 1-466)
Description: In vitro functional study, antagonism of phenylepinephrine-induced contraction of prostate. The series is classed as biochemical. As to conditions: for Selectivity α1A/α1B / Selectivity α1A/α1D: functional assays, from pKB values; for Kb: prostate, phenylepinephrine, tested compound at 0.1, 1 and 10 mM, read-out: α Adrenoceptor Subtype (pKB) α1A (converted). From the text: (§3) In order to study selectivity of action of these compounds towards different α-adrenoceptor subtypes, the ability of these compounds to antagonise α1-adrenoceptor agonist induced contractile response on aorta (α1Dprostate (α1A and spleen (α1B was studied. Aorta and spleen tissues were isolated from urethane anaesthetised (1.5 gm/kg) male wistar rats. Isolated tissues were mounted in organ bath containing Krebs Henseleit buffer of following composition (mM): NaCl 118; KCl 4.7; CaCl2 2.5; MgSO4. 7H2O 1.2; NaHCO3 25; KH2PO41.2; glucose 11.5. Buffer was maintained at 37° C. and aereated with a mixture of 95% O2 and 5% CO2. A resting tension of 2 g (aorta) or 1 g (spleen and prostate)was applied to tissues. Contractile response was monitored using a force displacement transducer and recorded on chart recorders. Tissues were allowed to equilibrate for 2 hours. At the end of equilibration period, concentration response curves to norepinephrine (aorta) and phenylepinephrine (spleen and prostate) were obtained in absence and presence of tested compound (at concentration of 0.1,1 and 10 mM). Antagonist affinity was calculated and expressed as pKB vales in Table II.

The target in series [2] is T4, α1B adrenoceptor (spleen) (Rattus norvegicus, UniProt P15823).
T4 construct: Isolated tissues were mounted in organ bath containing Krebs Henseleit buffer; from tissue; host or cells: isolated spleen of male wistar rats
T4 sequence (P15823 1-515): T2 sequence (P15823 1-515)
Description: In vitro functional study, antagonism of phenylepinephrine-induced contraction of spleen. The series is classed as biochemical. As to conditions: tested compound at 0.1, 1 and 10 mM, read-out: α Adrenoceptor Subtype (pKB) α1B (converted).
Excerpt: as §3

A further series has as its target T5, α1D adrenoceptor (aorta) (Rattus norvegicus, UniProt P23944).
T5 construct: Isolated tissues were mounted in organ bath containing Krebs Henseleit buffer; from tissue; host or cells: isolated aorta of male wistar rats
T5 sequence (P23944 1-561): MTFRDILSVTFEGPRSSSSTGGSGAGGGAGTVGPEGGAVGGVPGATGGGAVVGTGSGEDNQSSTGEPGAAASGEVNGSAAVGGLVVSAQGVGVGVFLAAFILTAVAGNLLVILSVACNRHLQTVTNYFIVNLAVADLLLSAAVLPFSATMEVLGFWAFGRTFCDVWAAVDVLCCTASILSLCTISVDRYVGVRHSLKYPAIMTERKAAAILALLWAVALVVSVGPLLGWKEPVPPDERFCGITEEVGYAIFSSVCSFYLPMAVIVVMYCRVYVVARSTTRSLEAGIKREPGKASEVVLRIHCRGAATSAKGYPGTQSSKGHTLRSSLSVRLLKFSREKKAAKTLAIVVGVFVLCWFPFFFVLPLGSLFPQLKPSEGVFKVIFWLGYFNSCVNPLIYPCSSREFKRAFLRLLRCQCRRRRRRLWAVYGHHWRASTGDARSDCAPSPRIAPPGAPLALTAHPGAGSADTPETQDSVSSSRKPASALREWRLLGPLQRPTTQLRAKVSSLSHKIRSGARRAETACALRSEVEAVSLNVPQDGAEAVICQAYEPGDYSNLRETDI
Description: In vitro functional study, antagonism of norepinephrine-induced contraction of aorta. In kind it is biochemical. As to conditions: tested compound at 0.1, 1 and 10 mM, read-out: α Adrenoceptor Subtype (pKB) α1D (converted).
Excerpt: as §3

On to `COc1ccc(F)cc1N1CCN(CCCN2C(=O)C3CC=CCC3C2=O)CC1.Cl` (stereo not drawn) [Compound 08, 2-[3-{4-(2-Methoxy-5-fluorophenyl)piperazin-1-yl}propyl]-3a,4,7,7a-tetrahydro-1H-isoindole-1,3(2H)-dione hydrochloride], for which the melting point (as a rule, the temperature, or range, at which the solid turns liquid) was in the range of 163 to 165 °C. Further, on α1A adrenoceptor, the Ki (in general, the dissociation constant of the complex between target and ligand, obtained from inhibition or displacement) is 0.34 nM; the “Selectivity α1B/α1A” value is listed as 85. Besides, the Ki at α1B adrenoceptor was found to be 29 nM. In series [1], the “Selectivity α1A/α1B” value is recorded as 3.4 and the Kb is 1.17 nM. Also, the Kb in series [2] is 3.98 nM. For the same molecule, the Kb on α1D adrenoceptor (aorta) was 0.891 nM.
`COc1ccccc1N1CCN(C(C)CCN2C(=O)C3CC=CCC3C2=O)CC1.Cl` (stereo not drawn) [Compound 29, 2-[3-{4-(2-Methoxyphenyl)piperazin-1-yl}-3-methylpropyl]-3a,4,7,7a-tetrahydro-1H-isoindole-1,3(2H)-dione hydrochloride] returned a melting point of 219 to 220 °C. At α1A adrenoceptor, the Ki was determined as 3.45 nM and the “Selectivity α1B/α1A” value was 205. For the same molecule, at α1B adrenoceptor, the Ki amounted to 708 nM. For the same molecule, in series [1], the “Selectivity α1A/α1B” value came out at 18 and the Kb was 87.1 nM. For the same molecule, the Kb in series [2] was 1580 nM. Moreover, at α1D adrenoceptor (aorta), the Kb was 33.9 nM.
`CCCCCCOc1ccccc1N1CCN(CCCN2C(=O)C3CC=CCC3C2=O)CC1.Cl` (stereo not drawn) [Compound 25, 2-[3-{4-(2-n-Hexyloxyphenyl)piperazin-1-yl}propyl]-3a,4,7,7a-tetrahydro-1H-isoindole-1,3(2H)-dione hydrochloride] returned a melting point of 165 to 166 °C. Moreover, on α1A adrenoceptor, the Ki was found to be 3.3 nM and the “Selectivity α1B/α1A” value was more than 151. For the same molecule, the Ki on α1B adrenoceptor is more than 500 nM. In series [1], the “Selectivity α1A/α1B” value stood at 54 and the Kb is 1.26 nM. The Kb in series [2] was 67.6 nM. Moreover, the Kb at α1D adrenoceptor (aorta) was 1 nM.
`Cl.O=C1C2CC=CCC2C(=O)N1CCCN1CCN(c2ccccc2)CC1` (stereo not drawn) [Compound 13, 2-[3-{4-(Phenyl)piperazin-1-yl}propyl]-3a,4,7,7a-tetrahydro-1H-isoindole-1,3(2H)-dione hydrochloride] displayed a melting point of 231 to 232 °C. At α1A adrenoceptor, the Ki was found to be 6.3 nM and the “Selectivity α1B/α1A” value came out at 61. In addition, on α1B adrenoceptor, the Ki stood at 384 nM. In series [1], the “Selectivity α1A/α1B” value is 89, the “Selectivity α1A/α1D” value is 5.6 and the Kb is 9.12 nM. Besides, the Kb in series [2] is 813 nM. At α1D adrenoceptor (aorta), the Kb was 51.3 nM.
In turn, `CCc1ccccc1N1CCN(CCCN2C(=O)C3CC=CCC3C2=O)CC1.Cl` (stereo not drawn) [Compound 09, 2-[3-{4-(2-Ethylphenyl)piperazin-1-yl}propyl]-3a,4,7,7a-tetrahydro-1H-isoindole-1,3(2H)-dione hydrochloride] came in with a melting point of 232.5 to 233.5 °C. Moreover, on α1A adrenoceptor, the Ki is 0.3 nM and the “Selectivity α1B/α1A” value stood at 207. Also, the Ki on α1B adrenoceptor came to 62 nM. Also, in series [1], the “Selectivity α1A/α1B” value is given as 23, the “Selectivity α1A/α1D” value is reported as 3.6 and the Kb is 0.676 nM. In addition, the Kb in series [2] was 15.8 nM. For the same molecule, on α1D adrenoceptor (aorta), the Kb was 2.51 nM.
